Measurements as given in patent publication US20240368157A1, “FORMS AND COMPOSITIONS OF A JAK2 INHIBITOR” (Ajax Therapeutics, Inc., priority 2023, published 2024).
Values after ≈ are worked out from the molar mass of the structure shown. Like-named read-outs stand apart in the source and are kept apart here. Marks after values point to notes of the source that are not given here. Values belong to the molecule of their own block, whether it stands above or below them.

Tests used:
[1] = Interconversion slurry experiments; settings: interconversion slurries, ambient temperature to 65° C.
Protocol: Mixtures of Form H and Form I with Form B were utilized in these interconversion slurry experiments. […] The interconversion slurries were performed at ambient and elevated (65° C.) temperatures in various solvents and solvent mixtures.

[2] = Dynamic vapor sorption (DVS); format: physicochemical; settings: for Hysteresis: in % (unit assumed); for weight gain during sorption: DVS; for XRPD pattern of the post-DVS sample: after DVS experiment
Protocol: Moisture sorption/desorption data were collected on a Surface Measurement System DVS Intrinsic instrument. Samples were not dried prior to analysis. Sorption and desorption data were collected over a range from 5% to 95% RH to 5% RH at 10% RH increments under a nitrogen purge. The equilibrium criterion used for analysis was less than 0.0100% weight change in 5 minutes with a maximum equilibration time of 3 hours. Data were not corrected for the initial moisture content of the samples.

[3] = Stability stress studies on Form B (RH/temperature exposure, XRPD); format: physicochemical
Protocol: Stability stress studies were conducted on Form B by exposing samples to three conditions: 57.5% RH/RT; 97.3% RH/RT, and 75% RH/40° C. and collecting XRPD data at two time points (14 and 28 days).

[4] = Slurry in water at ambient temperature (XRPD); format: physicochemical; settings: 5 days
[5] = Approximate solubility estimates (solvent incremental addition, visual observation); format: physicochemical; settings: for solubility: thermodynamic from solid
Protocol: Approximate solubility estimates of Compound 1 Lot I were ascertained using the solvent incremental addition method and visual observation (Table 2.1). […] Approximate solubilities were calculated based on the total solvent used to achieve a solution, as judged by visual observation. Actual solubilities may be greater because of the volume of solvent portions utilized or a slow rate of dissolution. […] If dissolution occurred at the first aliquot, the value was reported as “>”

[6] = Exposure experiments at high relative humidity; format: physicochemical; settings: RT, 17 days
Protocol: In a series of exposure experiments, Compound 1 Lot I was exposed to high relative humidity. Generally, approx. 50 mg Compound 1 was transferred to vials, and the vials were placed open in chambers containing saturated aqueous solutions of various salts, which are known to generate various relative humidity levels in the chambers. See, e.g., “Standard Practice for Maintaining Constant Relative Humidity by Means of Aqueous Solutions” ASTM Standard E 104-85 (1996); “Humidity Fixed Points of Binary Saturated Aqueous Solutions” Greenspan, L. J. Res. Natl. Bur. Stand., Sect. A […], 81A, 89-96; “Saturated Salt Solutions for Maintaining Specified Relative Humidities” Nyqvist, H. E. Int. J. Pharma. Technol. Prod. Manuf. 1983, 4, 47-48; and “Evaluation of Relative Humidity Values for Saturated Aqueous Salt Solutions Using Osmotic Coefficients Between 50 and 100° C.” Moisture Humidity, Proc. Int. Symp. 1985, 577-96.

Compound: CN(C)C(=O)Nc1cc(Oc2cnc3nc(Nc4cc(C(F)(F)F)cn(C)c4=O)n(C)c3c2C#N)ccn1 [Form I]
- relative stability of anhydrous forms ([1]; listed as Compound 1 Form I): metastable form with respect to Form B

Compound: CN(C)C(=O)Nc1cc(Oc2cnc3nc(Nc4cc(C(F)(F)F)cn(C)c4=O)n(C)c3c2C#N)ccn1 [Form C]
- Desorp Mass Change (%) ([2]; DVS cycle 1, target RH 5%): 0.028%
- Sorp Mass Change (%) ([2]; DVS cycle 1, target RH 5%): 0.005%
- Desorp Mass Change (%) ([2]; DVS cycle 1, target RH 15%): 1.354%
- Sorp Mass Change (%) ([2]; DVS cycle 1, target RH 15%): 1.314%
- Hysteresis ([2]; DVS cycle 1, target RH 15%): 0.040
- Desorp Mass Change (%) ([2]; DVS cycle 1, target RH 25%): 1.757%
- Sorp Mass Change (%) ([2]; DVS cycle 1, target RH 25%): 1.741%
- Hysteresis ([2]; DVS cycle 1, target RH 25%): 0.016
- Desorp Mass Change (%) ([2]; DVS cycle 1, target RH 35%): 1.927%
- Sorp Mass Change (%) ([2]; DVS cycle 1, target RH 35%): 1.912%
- Hysteresis ([2]; DVS cycle 1, target RH 35%): 0.015
- Desorp Mass Change (%) ([2]; DVS cycle 1, target RH 45%): 2.061%
- Sorp Mass Change (%) ([2]; DVS cycle 1, target RH 45%): 2.017%
- Hysteresis ([2]; DVS cycle 1, target RH 45%): 0.044
- Desorp Mass Change (%) ([2]; DVS cycle 1, target RH 55%): 2.161%
- Sorp Mass Change (%) ([2]; DVS cycle 1, target RH 55%): 2.100%
- Hysteresis ([2]; DVS cycle 1, target RH 55%): 0.061
- Desorp Mass Change (%) ([2]; DVS cycle 1, target RH 65%): 2.240%
- Sorp Mass Change (%) ([2]; DVS cycle 1, target RH 65%): 2.178%
- Hysteresis ([2]; DVS cycle 1, target RH 65%): 0.061
- Desorp Mass Change (%) ([2]; DVS cycle 1, target RH 75%): 2.323%
- Sorp Mass Change (%) ([2]; DVS cycle 1, target RH 75%): 2.262%
- Hysteresis ([2]; DVS cycle 1, target RH 75%): 0.061
- Desorp Mass Change (%) ([2]; DVS cycle 1, target RH 85%): 2.437%
- Sorp Mass Change (%) ([2]; DVS cycle 1, target RH 85%): 2.375%
- Hysteresis ([2]; DVS cycle 1, target RH 85%): 0.062
- Desorp Mass Change (%) ([2]; DVS cycle 1, target RH 95%): 2.620%
- Sorp Mass Change (%) ([2]; DVS cycle 1, target RH 95%): 2.620%
- weight gain during sorption ([2]; 5-25% RH): 1.74%
- weight gain during sorption ([2]; 5-95% RH): 2.6%
- XRPD pattern of the post-DVS sample [2]: consistent with Form C with slight peak shifting

Compound: CN(C)C(=O)Nc1cc(Oc2cnc3nc(Nc4cc(C(F)(F)F)cn(C)c4=O)n(C)c3c2C#N)ccn1 [Form B]
- Desorp Mass Change (%) ([2]; DVS cycle 1, target RH 5%): −0.0297%
- Sorp Mass Change (%) ([2]; DVS cycle 1, target RH 5%): 0.0003%
- Desorp Mass Change (%) ([2]; DVS cycle 1, target RH 15%): 0.0109%
- Sorp Mass Change (%) ([2]; DVS cycle 1, target RH 15%): 0.0327%
- Hysteresis ([2]; DVS cycle 1, target RH 15%): −0.0218
- Desorp Mass Change (%) ([2]; DVS cycle 1, target RH 25%): 0.048%
- Sorp Mass Change (%) ([2]; DVS cycle 1, target RH 25%): 0.0627%
- Hysteresis ([2]; DVS cycle 1, target RH 25%): −0.0147
- Desorp Mass Change (%) ([2]; DVS cycle 1, target RH 35%): 0.0903%
- Sorp Mass Change (%) ([2]; DVS cycle 1, target RH 35%): 0.0974%
- Hysteresis ([2]; DVS cycle 1, target RH 35%): −0.0071
- Desorp Mass Change (%) ([2]; DVS cycle 1, target RH 45%): 0.1586%
- Sorp Mass Change (%) ([2]; DVS cycle 1, target RH 45%): 0.1439%
- Hysteresis ([2]; DVS cycle 1, target RH 45%): 0.0147
- Desorp Mass Change (%) ([2]; DVS cycle 1, target RH 55%): 0.2045%
- Sorp Mass Change (%) ([2]; DVS cycle 1, target RH 55%): 0.1803%
- Hysteresis ([2]; DVS cycle 1, target RH 55%): 0.0241
- Desorp Mass Change (%) ([2]; DVS cycle 1, target RH 65%): 0.2463%
- Sorp Mass Change (%) ([2]; DVS cycle 1, target RH 65%): 0.2227%
- Hysteresis ([2]; DVS cycle 1, target RH 65%): 0.0235
- weight gain during sorption ([2]; 5-95% RH): 0.43%
- XRPD pattern of the post-DVS sample [2]: consistent with Form B
- hygroscopicity ([2]; judged from DVS sorption/desorption): non-hygroscopic
- XRPD Result ([3]; 57.5% RH/RT, 14 days): Form B
- XRPD Result ([3]; 57.5% RH/RT, 28 days): Form B
- stability under stress conditions ([3]; 57.5% RH/RT, 97.3% RH/RT, 75% RH/40° C., 14 and 28 days): stable at the tested stress conditions
- XRPD Result ([3]; 75.3% RH/40° C., 14 days): Form B
- XRPD Result ([3]; 75.3% RH/40° C., 28 days): Form B
- XRPD Result ([3]; 97.3% RH/RT, 14 days): Form B
- XRPD Result ([3]; 97.3% RH/RT, 28 days): Form B
- solid form after slurry in water (XRPD) [4]: remained unchanged
- relative stability of anhydrous forms [1]: likely the most stable anhydrous form under the tested conditions

Other lines, results leading:

- solubility ([5]; 2-butanone (MEK), organic solvent or mixture, 2-butanone (MEK), ambient, read-out: Solubility): 1000 µg/mL (≈ 1900 µM)
- Solubility (mg/mL) ([5]; AcOH, ambient): >59^b mg/mL
- solubility ([5]; AcOH:H2O (20:80), aqueous with cosolvent or surfactant or cyclodextrin, AcOH:H2O (20:80), aw = 0.94, ambient, read-out: Solubility): 1000 µg/mL (≈ 1900 µM)
- solubility ([5]; AcOH:H2O (50:50), aqueous with cosolvent or surfactant or cyclodextrin, AcOH:H2O (50:50), aw = 0.84, ambient, read-out: Solubility): 14000 µg/mL (≈ 26500 µM)
- solubility ([5]; AcOH:H2O (85:15), organic solvent or mixture, AcOH:H2O (85:15), aw = 0.51, ambient, read-out: Solubility): > 51000 µg/mL
- solubility ([5]; CHCl3, organic solvent or mixture, CHCl3, ambient, read-out: Solubility): 2000 µg/mL (≈ 3790 µM)
- solubility ([5]; DMA, organic solvent or mixture, DMA, ambient, read-out: Solubility): 8000 µg/mL (≈ 15200 µM)
- solubility ([5]; DMSO, organic solvent or mixture, DMSO, ambient, read-out: Solubility): 6000 µg/mL (≈ 11400 µM)
- solubility ([5]; EtOAc, organic solvent or mixture, EtOAc, ambient, read-out: Solubility): < 1000 µg/mL
- solubility ([5]; EtOH:H2O (90:10), organic solvent or mixture, EtOH:H2O (90:10), aw = 0.49, ambient, read-out: Solubility): 1000 µg/mL (≈ 1900 µM)
- solubility ([5]; MIBK, organic solvent or mixture, MIBK, ambient, read-out: Solubility): < 1000 µg/mL
- solubility ([5]; MeCN, organic solvent or mixture, MeCN, ambient, read-out: Solubility): < 1000 µg/mL
- solubility ([5]; MeOH, organic solvent or mixture, MeOH, ambient, read-out: Solubility): < 1000 µg/mL
- solubility ([5]; MeOH:CHCl3 (50:50), organic solvent or mixture, MeOH:CHCl3 (50:50), ambient, read-out: Solubility): < 1000 µg/mL
- solubility ([5]; MeOH:DCM (1:3), organic solvent or mixture, MeOH:DCM (1:3), ambient, read-out: Solubility): 37000 µg/mL (≈ 70100 µM)
- solubility ([5]; MeOH:H2O (90:10), organic solvent or mixture, MeOH:H2O (90:10), aw = 0.29, ambient, read-out: Solubility): 1000 µg/mL (≈ 1900 µM)
- solubility ([5]; NMP, organic solvent or mixture, NMP, ambient, read-out: Solubility): 8000 µg/mL (≈ 15200 µM)
- solubility ([5]; TFE, organic solvent or mixture, TFE, ambient, read-out: Solubility): 17000 µg/mL (≈ 32200 µM)
- solubility ([5]; THF, organic solvent or mixture, THF, ambient, read-out: Solubility): < 1000 µg/mL
- solubility ([5]; acetic acid (AcOH), organic solvent or mixture, AcOH, ambient, read-out: Solubility): > 59000 µg/mL
- solubility ([5]; acetone, organic solvent or mixture, Acetone, ambient, read-out: Solubility): 1000 µg/mL (≈ 1900 µM)
- solubility ([5]; acetone:H2O (90:10), organic solvent or mixture, acetone:H2O (90:10), aw = 0.69, ambient, read-out: Solubility): 2000 µg/mL (≈ 3790 µM)
- solubility ([5]; i-PrOH, organic solvent or mixture, i-PrOH, ambient, read-out: Solubility): < 1000 µg/mL
- solubility ([5]; organic solvent or mixture, 10% water added to acetone, ethanol, and methanol, ambient, read-out: solubility after addition of 10% water): 1000 to 2000 µg/mL (≈ 1900 to 3790 µM)
- solubility ([5]; organic solvent or mixture, in acetone, chloroform, MEK, and aprotic solvents DMSO, DMAc, and NMP, ambient, read-out: limited solubility): 1000 to 8000 µg/mL (≈ 1900 to 15200 µM)
- solubility ([5]; toluene, organic solvent or mixture, toluene, ambient, read-out: Solubility): < 1000 µg/mL
- solubility ([5]; water, H2O, ambient, read-out: Solubility): < 1000 µg/mL
- XRPD Result ([6]; 75% RH): Forms B + C + larger peaks
- weight gain ([6]; 75% RH): 0.56% weight gain
- XRPD Result ([6]; 97% RH): Forms B + C + peaks
- weight gain ([6]; 97% RH): 0.71% weight gain
Compound: CN(C)C(=O)Nc1cc(Oc2cnc3nc(Nc4cc(C(F)(F)F)cn(C)c4=O)n(C)c3c2C#N)ccn1 [Compound 1 Lot I]

- solubility ([5]; 1-BuOH:H2O (90:10), 80 °C, organic solvent or mixture, 1-BuOH:H2O (90:10), aw = 0.82, 80° C., read-out: Solubility): 4000 µg/mL (≈ 7580 µM)
- solubility ([5]; 1-BuOH:H2O (96:4), 85 °C, organic solvent or mixture, 1-BuOH:H2O (96:4), aw = 0.49, 85° C., read-out: Solubility): 1000 µg/mL (≈ 1900 µM)
Compound: CN(C)C(=O)Nc1cc(Oc2cnc3nc(Nc4cc(C(F)(F)F)cn(C)c4=O)n(C)c3c2C#N)ccn1 [Compound 1 Lot II]
